Measured values: patent US8455649B2, “Insecticidal substituted azinyl derivatives” (Dow AgroSciences, LLC, priority 2007, dated 2013)

Legend:
[1] = test system: Corn Earworm (Helicoverpa zea); experiment: Insecticidal diet-surface test for corn earworm; assay type: in vivo; details: 120 h, second-instar larvae on treated diet, 50 μg/cm^2 on diet surface, 5 days after treatment, 8 insects per treatment, read-out: HELIZE AVG % Mortality (50 μg/cm^2)
Procedure: (§1) The compounds identified in Table 1 were tested against beet armyworm and corn earworm as follows:
(§2) Insecticidal Test for Corn Earworm (Helicoverpa zea) and Beet Armyworm (Spodoptera exigua).
(§3) To prepare test solution, the test compound was formulated at 2000 ppm solution as 4 mg/2 mL of 9 acetone:1 tap water. 50 μL of the 2000 ppm (equivalent to 50 μg/cm^2 dose on diet surface area) test solution was pipetted upon the surface of 1 mL of lepidopteran diet (Southland Multi-Species Lepidopteran Diet) contained in each of eight wells per insect species (one well=1 replication). A second-instar corn earworm and beet armyworm was placed upon the treated diet in each well once the solvent had air-dried. Trays containing the treated diet and larvae were covered and then held in a growth chamber at 25° C., 50-55% RH, and 16 hr light:8 hr dark for 5 days. Observation were conducted 5 days after treatment and infestation. The number of dead insects of 8 per species per treatment was then determined and the results are given in Table 2 as a percent control at a dose of […].

[2] = test system: Beet Armyworm (Spodoptera exigua); experiment: Insecticidal diet-surface test for beet armyworm; assay type: in vivo; details: 120 h, second-instar larvae on treated diet, 50 μg/cm^2 on diet surface, 5 days after treatment, 8 insects per treatment, read-out: LAPHEG AVG % Mortality (50 μg/cm^2)
Procedure: as §1, §2, §3

SMILES	mortality at 50 µg/cm2 [1]	mortality at 50 µg/cm2 [2]
CN(C(=O)Nc1nc(OCC(F)(F)F)cc(OCC(F)(F)F)n1)c1ccc(OCC(F)F)cc1 [Compound 71]	100%	100%
CN(C(=O)Nc1ccc(OC(F)(F)F)cc1)c1nc(OCC(F)(F)F)cc(OCC(F)(F)F)n1 [Compound 10]	0%	100%
CN(C(=O)Nc1cc(OCC(F)(F)F)nc(OCC(F)(F)F)n1)c1ccc(C(F)(F)F)cc1 [Compound 107]	100%	100%
CN(C(=O)Nc1nc(OCC(F)(F)F)cc(OCC(F)(F)F)n1)c1ccc(Br)cn1 [Compound 123]	100%	100%
CN(C(=O)Nc1nc(OCC(F)(F)C(F)F)cc(OCC(F)(F)C(F)F)n1)c1ccc(C(F)(F)F)cc1 [Compound 177]	100%	100%
O=C(Nc1nc(OCC(F)(F)F)cc(OCC(F)(F)F)n1)N(O)c1ccc(Cl)cc1 [Compound 64, N′-[4,6-bis(2,2,2-trifluoroethoxy)pyrimidin-2-yl]-N-(4chlorophenyl)-N-hydroxyurea]	100%	100%
O=C(Nc1ccc(C(F)(F)F)cc1)Nc1nc(OCC(F)(F)F)nc(OCC(F)(F)F)n1 [Compound 116]	0%	100%
CN(C(=S)Nc1nc(OCC(F)(F)F)cc(OCC(F)(F)F)n1)c1ccc(C(F)(F)F)nc1 [Compound 133]	100%	100%
O=C(Nc1ccc(Br)cc1)Nc1nc(OCC(F)(F)F)nc(OCC(F)(F)F)n1 [Compound 117]	0%	100%
CN(C(=O)Nc1nc(OCC(F)(F)F)cc(OCC(F)(F)F)n1)c1ccc(Br)cc1C(F)(F)F [Compound 155]	100%	50%
CN(C(=O)Nc1nc(OCC(F)(F)F)cc(OCC(F)(F)F)n1)c1ccc(F)cc1F [Compound 150]	75%	100%
CN(C(=O)Nc1cc(C(F)(F)F)cc(OCC(F)(F)F)n1)c1ccc(C(F)(F)F)cc1 [Compound 162]	100%	100%
FC(F)(F)COc1cc(OCC(F)(F)F)nc(NC(=S)Nc2ccc(Br)cc2)n1 [Compound 129]	100%	100%
O=C(Nc1ccc(C(F)(F)F)nc1)Nc1nc(OCC(F)(F)F)cc(OCC(F)(F)F)n1 [Compound 24]	100%	100%
CCOCN(C(=O)N(COCc1ccccc1)c1nc(OCC(F)(F)F)cc(OCC(F)(F)F)n1)c1ccc(Br)cc1 [Compound 67]	100%	100%
COCN(C(=O)Nc1nc(OCC(F)(F)F)cc(OCC(F)(F)F)n1)c1ccc(C(F)(F)F)nc1 [Compound 91]	100%	100%
CN(C(=O)Nc1nc(OCC(F)(F)F)c(Cl)c(OCC(F)(F)F)n1)c1ccc(OC(F)(F)F)cc1 [Compound 138]	100%	100%
FC(F)(F)COc1cc(OCC(F)(F)F)nc(NC(=S)Nc2ccc(C(F)(F)F)cc2)n1 [Compound 130]	100%	100%
CN(C(=O)Nc1cc(C(F)(F)F)cc(OCC(F)(F)F)n1)c1ccc(OC(F)(F)F)cc1 [Compound 168]	100%	100%
COCN(C(=O)N(COCc1ccccc1)c1nc(OCC(F)(F)F)cc(OCC(F)(F)F)n1)c1ccc(Br)cc1 [Compound 68]	100%	100%
CN(C(=O)Nc1nc(OCC(F)(F)F)cc(OCC(F)(F)F)n1)c1ccc(C(F)(F)F)cc1F [Compound 161]	100%	100%
O=C(Nc1nc(OCC(F)(F)F)cc(OCC(F)(F)F)n1)Nc1c(Cl)cc(OC(F)(F)F)cc1Cl [Compound 178]	100%	100%
CCOc1cc(OCC(F)(F)F)nc(NC(=O)N(C)c2ccc(Br)cc2)n1 [Compound 103, N-(4-bromophenyl)-N′-[4-ethoxy-6-(2,2,2-trifluoroethoxy)-pyrimidin-2-yl]-N-methylurea]	100%	25%
CN(C(=O)Nc1nc(OCC(F)(F)F)cc(OCC(F)(F)F)c1F)c1ccc(OC(F)(F)F)cc1 [Compound 185]	100%	100%
CN(C(=O)Nc1nc(OCC(F)(F)F)cc(OCC(F)(F)F)n1)c1ccc(OC(F)(F)C(F)F)cc1 [Compound 29]	100%	100%

SMILES	mortality at 50 µg/cm2 [1]	mortality at 50 µg/cm2 [2]
CN(C(=O)Nc1nc(OCC(F)(F)F)cc(OCC(F)(F)F)n1)c1ccc(C#N)cn1 [Compound 128]	100%	88%
O=C(Nc1ccc(Cl)cc1)Nc1nc(OCC(F)(F)F)cc(OCC(F)(F)F)n1 [Compound 20]	100%	100%
COC(=O)c1ccc(N(C)C(=O)Nc2nc(OCC(F)(F)F)cc(OCC(F)(F)F)n2)cc1 [Compound 82]	0%	100%
CN(C(=O)Nc1nc(OCC(F)(F)F)cc(OCC(F)(F)F)c1F)c1ccc(C(F)(F)F)cc1 [Compound 184]	100%	100%
N#CCN(C(=O)Nc1nc(OCC(F)(F)F)cc(OCC(F)(F)F)n1)c1ccc(OC(F)(F)F)cc1 [Compound 77]	100%	100%
O=C(Nc1ccc(OC(F)(F)F)cc1)N(COCc1ccccc1)c1nc(OCC(F)(F)F)cc(OCC(F)(F)F)n1 [Compound 43]	100%	100%
CN(C(=S)Nc1nc(OCC(F)(F)F)cc(OCC(F)(F)F)n1)c1ccc(Br)cc1 [Compound 132]	100%	100%
O=C(Nc1ccc(SC(F)(F)F)cc1)Nc1nc(OCC(F)(F)F)cc(OCC(F)(F)F)n1 [Compound 58]	100%	100%
CC1(COc2cc(OCC(F)(F)F)nc(NC(=O)Nc3ccc(C(F)(F)F)cc3)n2)CC1(Cl)Cl (centres unmarked) [Compound 101]	100%	100%
CCN(C(=O)Nc1nc(OCC(F)(F)F)cc(OCC(F)(F)F)n1)c1ccc(Br)cc1 [Compound 40]	100%	100%
O=C(Nc1ccc(Br)nc1)Nc1nc(OCC(F)(F)F)c(Cl)c(OCC(F)(F)F)n1 [Compound 146]	100%	100%
COCN(C(=O)Nc1nc(OCC(F)(F)F)cc(OCC(F)(F)F)n1)c1ccc(C(F)(F)F)cc1 [Compound 39]	100%	100%
O=C(Nc1nc(OCC(F)(F)F)cc(OCC(F)(F)F)n1)N(c1ccc(C(F)(F)F)cc1)C1CC1 [Compound 156]	100%	100%
O=C(Nc1nc(OCC(F)(F)F)cc(OCC(F)(F)F)n1)N(c1ccc(OC(F)(F)F)cc1)C(F)(F)F [Compound 93]	100%	100%
O=C(Nc1ccc(C(F)(F)F)cc1)Nc1nc(OCC(F)(F)F)cc(OCC(F)(F)F)n1 [Compound 1, N′-[4,6-bis(2,2,2-trifluoroethoxy)pyrimidin-2-yl]-N-[4-(trifluoro-methyl)phenyl]urea]	100%	100%
CCOCN(C(=O)Nc1nc(OCC(F)(F)F)cc(OCC(F)(F)F)n1)c1ccc(Br)cc1 [Compound 74]	100%	100%
O=C(Nc1ccc(Br)cc1)Nc1nc(OCC(F)(F)F)c(Cl)c(OCC(F)(F)F)n1 [Compound 137]	100%	88%
CN(C(=O)Nc1nc(OCC(F)(F)F)cc(OCC(F)(F)F)n1)c1ccc(S(=O)(=O)C(F)(F)F)cc1 [Compound 94]	100%	100%
O=C(Nc1cc(OCC(F)(F)F)nc(OCC(F)(F)F)n1)N(CCF)c1ccc(OC(F)(F)F)cc1 [Compound 114]	100%	100%
CN(C(=O)Nc1cc(OCC(F)(F)F)nc(OCC(F)(F)F)n1)c1ccc(Br)nc1 [Compound 109]	25%	88%
CN(C)CCN(C(=O)Nc1nc(OCC(F)(F)F)cc(OCC(F)(F)F)n1)c1ccc(OC(F)(F)F)cc1 [Compound 70]	100%	100%
O=C(Nc1nc(OCC(F)(F)F)cc(OCC(F)(F)F)n1)Nc1c(Cl)cc(Br)cc1Cl [Compound 180]	100%	100%
O=C(Nc1ccc(Br)c(F)c1)Nc1nc(OCC(F)(F)F)cc(OCC(F)(F)F)n1 [Compound 72]	100%	0%
CN(C(=O)Nc1nc(OCC(F)(F)F)nc(OCC(F)(F)F)n1)c1ccc(Br)cc1 [Compound 119]	88%	100%
